Source: patent US7858312B2, “Method of treating bladder and lower urinary tract syndromes” (Duke University, priority 1998, dated 2010)

Columns and labels:
α1ARs in human detrusor = assay: [125I]HEAT saturation binding in human detrusor membranes; conditions: saturation binding isotherm, n=5
Experimental: (§1) Human detrusor and rat bladder membrane preparation. Human detrusor and rat whole bladder was minced over dry ice, and suspended in cold lysis buffer (5 mM Tris HCl and 5 mM EDTA, pH 7.4) with protease inhibitors benzamidine (10 mg/ml), leupeptin (5 mg/ml), and soybean trypsin inhibitor (10 mg/ml) (Sigma Chemical Company; St. Louis, Mo.). A lysate was prepared with a Polytron PT 3000 (Brinkmann; Westbury, N.Y.) at 10,000 rpm for 10 seconds. After pelleting at 40,000×g for 15 minutes (Sorvall SM24 rotor), membranes were suspended in cold resuspension buffer (150 mM NaCl, 50 mM Tris-HCl, 5 mM EDTA, pH 7.4) with protease inhibitors, and kept on ice for immediate use (or stored at −70° C. for later use). Protein content was determined using the bicinchoninic assay (BCA) with bovine serum albumin (BSA) standards (Pierce; Rockford, Ill.).
Radioligand binding. All mRNA and protein studies described were performed using detrusor from each patient described above (n=13). […] Dried filters were then counted in a gamma counter. Specific binding was calculated by subtracting nonspecific binding from total binding. […] Total α1AR density was then determined in each detrusor sample as described above, using a saturating concentration of [^125I]HEAT (300 pM). […]

α1dAR = molecular target: T1, α1dAR (Homo sapiens, UniProt P25100); assay: BMY7378 competition binding vs [125I]HEAT in human detrusor membranes, high affinity site; conditions: share of total binding sites with high affinity, two-site fit, n=13
T1 construct: from tissue; host or cells: human bladder detrusor smooth muscle membranes
T1 sequence (P25100 1-572): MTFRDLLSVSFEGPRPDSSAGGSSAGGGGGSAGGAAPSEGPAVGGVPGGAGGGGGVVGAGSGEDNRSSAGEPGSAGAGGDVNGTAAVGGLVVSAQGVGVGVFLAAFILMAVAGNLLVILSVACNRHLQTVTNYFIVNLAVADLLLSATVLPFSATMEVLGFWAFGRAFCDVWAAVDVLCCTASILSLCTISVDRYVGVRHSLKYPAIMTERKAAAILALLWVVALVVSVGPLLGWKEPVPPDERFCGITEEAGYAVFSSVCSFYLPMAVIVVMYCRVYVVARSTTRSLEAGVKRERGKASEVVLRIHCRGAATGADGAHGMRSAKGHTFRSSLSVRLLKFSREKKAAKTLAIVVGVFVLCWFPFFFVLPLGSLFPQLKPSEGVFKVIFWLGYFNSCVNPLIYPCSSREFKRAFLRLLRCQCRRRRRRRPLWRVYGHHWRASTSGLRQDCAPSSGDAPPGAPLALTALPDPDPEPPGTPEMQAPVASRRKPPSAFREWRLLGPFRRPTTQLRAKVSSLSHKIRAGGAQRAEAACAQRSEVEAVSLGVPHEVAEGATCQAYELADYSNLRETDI
Experimental: as §1
(§2) Reaction conditions were as described above. Curves were fit with […] regression analysis using InPlot software (GraphPad).

α1aAR = molecular target: T2, α1aAR (Homo sapiens, UniProt P35348); assay: BMY7378 competition binding vs [125I]HEAT in human detrusor membranes, low affinity site; conditions: share of total binding sites with low affinity, two-site fit, n=13
T2 construct: from tissue; host or cells: human bladder detrusor smooth muscle membranes
T2 sequence (P35348 1-466): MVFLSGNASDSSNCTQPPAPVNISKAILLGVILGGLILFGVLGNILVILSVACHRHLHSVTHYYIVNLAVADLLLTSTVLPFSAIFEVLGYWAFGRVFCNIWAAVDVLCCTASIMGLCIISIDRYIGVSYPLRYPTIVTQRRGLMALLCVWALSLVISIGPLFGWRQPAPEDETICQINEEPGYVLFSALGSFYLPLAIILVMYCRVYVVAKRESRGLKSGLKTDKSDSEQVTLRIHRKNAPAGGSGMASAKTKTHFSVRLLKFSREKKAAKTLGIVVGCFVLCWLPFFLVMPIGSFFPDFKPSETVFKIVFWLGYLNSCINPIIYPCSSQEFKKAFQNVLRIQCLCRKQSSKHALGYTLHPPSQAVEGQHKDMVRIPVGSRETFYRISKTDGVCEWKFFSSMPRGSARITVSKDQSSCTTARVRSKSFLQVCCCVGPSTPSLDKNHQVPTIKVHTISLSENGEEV
Experimental: as §1, §2

α1bAR = molecular target: T3, α1bAR (Homo sapiens, UniProt P35368); assay: BMY7378 competition binding, membranes from rat-1 fibroblasts stably transfected with α1bAR (control); conditions: Control α1b: rat-1 fibroblast membranes stably transfected with α1bAR; read-out: pKi α1bAR (converted)
T3 construct: expressed in transfected cells; host or cells: rat-1 fibroblasts, stably transfected; membranes
T3 sequence (P35368 1-520): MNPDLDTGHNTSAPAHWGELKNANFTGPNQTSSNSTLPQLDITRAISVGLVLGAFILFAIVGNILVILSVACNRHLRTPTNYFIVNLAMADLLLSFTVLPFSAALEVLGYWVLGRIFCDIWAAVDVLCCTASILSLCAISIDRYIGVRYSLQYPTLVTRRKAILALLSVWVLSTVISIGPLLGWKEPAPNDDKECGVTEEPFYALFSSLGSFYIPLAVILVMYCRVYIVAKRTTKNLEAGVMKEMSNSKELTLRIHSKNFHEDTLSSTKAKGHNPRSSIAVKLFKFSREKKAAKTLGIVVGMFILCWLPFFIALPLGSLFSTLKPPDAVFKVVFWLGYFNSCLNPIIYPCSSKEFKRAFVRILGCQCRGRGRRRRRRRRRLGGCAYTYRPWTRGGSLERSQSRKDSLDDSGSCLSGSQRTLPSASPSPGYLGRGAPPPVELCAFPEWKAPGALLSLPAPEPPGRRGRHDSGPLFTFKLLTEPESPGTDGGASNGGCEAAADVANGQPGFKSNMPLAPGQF
Description: as §2

Kd (α1ARs in human detrusor) [µM]	% High (α1dAR) [%]	% Low (α1aAR) [%]	Ki (α1bAR) [µM]	SMILES
0.00013 ± 1.09e-06	–	–	–	O=C1c2ccccc2CCC1CNCCc1ccc(O)c(I)c1 (stereo not shown) [[125I]HEAT]
–	66±3.1	35±3.1	7.94	COc1ccccc1N1CCN(CCN2C(=O)CC3(CCCC3)CC2=O)CC1 [BMY7378]
